Laboratory results: patent US8748436B2, “Carboxylic acid derivatives having a 2,5,7-substituted oxazolopyrimidine ring” (Sanofi, priority 2010, dated 2014)

Biological target: T1, human Edg-1 receptor (Homo sapiens, UniProt P21453)
T1 construct: FLAG (N); expressed in transfected cells; membrane preparation
Experiment: GTP-γ-S assay using human Edg-1 receptors (scintillation proximity assay, CHO Flp-In cell membrane preparation)
Format: biochemical
Conditions: test compound at 10 μM; high control 10 μM S1P regarded as 100% activation; [35S]GTP-γ-S binding, triplicate; read-out: % Activation (Edg-1 receptor activation in percent of the activation by 10 μM S1P)
Description: A) GTP-γ-S Assay Using Human Edg-1 Receptors
In order to determine the Edg-1 receptor activation by the compounds of the invention, a GTP-γ-S (guanosine 5′-[thio]triphosphate) assay for G-protein coupled receptor binding based on the scintillation proximity assay principle was used, employing a cell membrane preparation from a CHO Flp-In cell line which constitutively overexpresses the human Edg-1 receptor.
The Flp-In™ expression system (Invitrogen, cat. no. K6010-01) allows the generation of stable mammalian cell lines into which the gene of interest has been integrated through homologous recombination at a specific genomic location called Flp Recombination Target (FRT) site by means of a Flp recombinase encoded by the pOG44 expression plasmid. The integration of the pcDNA5/FRT expression construct into the Flp-In host cell line genome results in the transcription of the gene of interest. The stably transfected cells become hygromycin-resistant.
One day prior to transfection, 200 000 Flp-In-CHO cells were seeded in Ham F-12 medium (Invitrogen, cat. no. 31765) supplemented with 10% fetal calf serum (FCS; Perbio Science, cat. no. SH30068.03) in a 6-well plate and incubated at 37° C./5% CO2 overnight. Using the FuGENE® 6 transfection reagent (Roche, cat. no. 11988387001), cells were cotransfected with the Flp recombinase expression plasmid pOG44 and a modified plasmid additionally containing the edg-1 gene (accession no. NM_001400) termed as pcDNA5-FRT-TO_nFLAG_DEST-EDG-1 with a 9:1 ratio. To obtain the modified pcDNA5-FRT-TO_nFLAG_DEST plasmid, the Invitrogen plasmid pcDNA5/FRT/TO (Invitrogen, cat. no. V6520-20) was adapted to the Gateway® (Invitrogen) cloning system by inserting a Gateway cassette containing attR recombination sites flanking a ccdB gene and a chloramphenicol-resistance gene (Gateway conversion system, Invitrogen, cat. no. 11828-029). In addition a FLAG tag epitope was added before the 5′ att recombination site to allow recombinant expression of N-terminally FLAG-tagged proteins.
For the transfection of one well, 1.08 μg of pOG44 and 0.12 μg of pcDNA5-FRT-TO_nFLAG_DEST-EDG-1 were mixed to 100 μl of serum-free Ham F-12 medium containing 6 μl of FuGENE® 6 transfection reagent. After 20 min of incubation, the transfection reagent/DNA complex was distributed dropwise on the cells. The cells were incubated for 24 h at 37° C. Then the cells from 3 wells were transferred to a T75 flask (Greiner Cellstar®, cat. no. 658175) containing Ham F-12 medium supplemented with 10% of FCS but without antibiotic and were incubated another 24 h. 48 h after transfection, the medium was replaced by selection medium (Ham F-12 supplemented with 10% of FCS and 300 μg/ml of hygromycin B (Invitrogen, cat. no. 10687-010)). The medium was exchanged every 2 to 3 days until a resistant population of cells had grown. […] After 2 weeks of selection, the cells were transferred into T175 flasks (Greiner Cellstar®, cat. no. 660175) and cultivated for batch production. Cells were harvested from the culture flasks by short treatment (2 to 5 min) with Accutase (PAA, cat. no. L11-007), resuspended in selection medium (see above) and centrifuged at 200×g for 5 min. The cells were resuspended in a mixture of 90% of FCS and 10% of dimethylsulfoxide and stored frozen in liquid nitrogen.
A membrane preparation was obtained by standard methods from the afore-described CHO Flp-In cell line constitutively overexpressing the human Edg-1 receptor. Briefly, the cryopreserved cells were taken in culture and grown until confluency in T175 cell culture flasks (Becton Dickinson, cat. no. 35 5001). […]

T1 sequence (P21453 whole entry): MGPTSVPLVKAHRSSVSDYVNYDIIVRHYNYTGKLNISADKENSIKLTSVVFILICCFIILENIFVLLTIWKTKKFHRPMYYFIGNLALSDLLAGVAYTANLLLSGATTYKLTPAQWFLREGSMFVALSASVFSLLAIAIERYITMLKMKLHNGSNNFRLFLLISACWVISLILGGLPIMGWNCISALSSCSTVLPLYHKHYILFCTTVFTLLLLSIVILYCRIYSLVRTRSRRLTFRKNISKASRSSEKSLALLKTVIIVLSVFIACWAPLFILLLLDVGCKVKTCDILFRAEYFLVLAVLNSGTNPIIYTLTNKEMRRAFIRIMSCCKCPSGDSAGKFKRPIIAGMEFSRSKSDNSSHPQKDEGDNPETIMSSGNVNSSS

In order of falling activation at 10 µM:
1. CCOc1nc(Oc2cc(F)ccc2C)nc2oc(-c3cc(C)c(OCC(=O)O)c(C)c3)nc12 [Example 36, {4-[7-ethoxy-5-(5-fluoro-2-methylphenoxy)-oxazolo[5,4-d]pyrimidin-2-yl]-2,6-dimethyl-phenoxy}-acetic acid]  116%
2. CCCOc1nc(Oc2cncc(Cl)c2)nc2oc(-c3cc(C)c(OCC(=O)O)c(C)c3)nc12 [Example 48, {4-[5-(5-chloropyridin-3-yloxy)-7-propoxy-oxazolo[5,4-d]pyrimidin-2-yl]-2,6-dimethyl-phenoxy}-acetic acid]  115%
3. CCCOc1nc(Oc2cncc(C)c2)nc2oc(-c3cc(C)c(OCC(=O)O)c(C)c3)nc12 [Example 33, {2,6-dimethyl-4-[5-(5-methylpyridin-3-yloxy)-7-propoxy-oxazolo[5,4-d]pyrimidin-2-yl]-phenoxy}-acetic acid]  110%
4. CCCOc1nc(Oc2cccc(F)c2F)nc2oc(-c3cc(C)c(OCC(=O)O)c(C)c3)nc12 [Example 49, {4-[5-(2,3-difluorophenoxy)-7-propoxy-oxazolo[5,4-d]pyrimidin-2-yl]-2,6-dimethylphenoxy}-acetic acid]  103%
5. CCCOc1nc(OC2CCCC2)nc2oc(-c3cc(C)c(OCC(=O)O)c(C)c3)nc12 [Example 2, [4-(5-Cyclopentyloxy-7-propoxy-oxazolo[5,4-d]pyrimidin-2-yl)-2,6-dimethyl-phenoxy]-acetic acid]  90%
6. CCCOc1nc(Oc2ccc3sc(C)nc3c2)nc2oc(-c3cc(C)c(OCC(=O)O)c(C)c3)nc12 [Example 70, {2,6-dimethyl-4-[5-(2-methylbenzothiazol-5-yloxy)-7-propoxy-oxazolo[5,4-d]pyrimidin-2-yl]-phenoxy}-acetic acid]  89%
7. CCCOc1nc(Oc2cc(F)cc(F)c2)nc2oc(-c3cc(C)c(OCC(=O)O)c(C)c3)nc12 [Example 50, {4-[5-(3,5-difluorophenoxy)-7-propoxy-oxazolo[5,4-d]pyrimidin-2-yl]-2,6-dimethyl-phenoxy}-acetic acid]  86%
8. CCCOc1nc(OC(C)C(F)(F)F)nc2oc(-c3cc(C)c(OCC(=O)O)c(C)c3)nc12 (stereo not shown) [Example 24, {2,6-dimethyl-4-[7-propoxy-5-(2,2,2-trifluoro-1-methyl-ethoxy)-oxazolo[5,4-d]pyrimidin-2-yl]-phenoxy}-acetic acid]  85%
9. CCCOc1nc(Oc2ccccc2)nc2oc(-c3cc(C)c(OCC(=O)O)c(C)c3)nc12 [Example 9, [2,6-dimethyl-4-(5-phenoxy-7-propoxy-oxazolo[5,4-d]pyrimidin-2-yl)-phenoxy]-acetic acid]  84%
10. CCCOc1nc(Oc2cccc(C(F)(F)F)c2Cl)nc2oc(-c3cc(C)c(OCC(=O)O)c(C)c3)nc12 [Example 79, {4-[5-(2-chloro-3-trifluoromethylphenoxy)-7-propoxy-oxazolo[5,4-d]pyrimidin-2-yl]-2,6-dimethylphenoxy}-acetic acid]  82%
11. CCCOc1nc(Oc2cccc(SC(F)(F)F)c2)nc2oc(-c3cc(C)c(OCC(=O)O)c(C)c3)nc12 [Example 76, {2,6-dimethyl-4-[7-propoxy-5-(3-trifluoromethylsulfanyl-phenoxy)-oxazolo[5,4-d]pyrimidin-2-yl]-phenoxy}-acetic acid]  81%
12. CCCOc1nc(OC(C)CC)nc2oc(-c3cc(C)c(OCC(=O)O)c(C)c3)nc12 (stereo not shown) [Example 20, [4-(5-sec-butoxy-7-propoxy-oxazolo[5,4-d]pyrimidin-2-yl)-2,6-dimethyl-phenoxy]-acetic acid]  80%
13. CCCOc1nc(Oc2cc(Cl)ccc2C)nc2oc(-c3cc(C)c(OCC(=O)O)c(C)c3)nc12 [Example 56, {4-[5-(5-chloro-2-methylphenoxy)-7-propoxy-oxazolo[5,4-d]pyrimidin-2-yl]-2,6-dimethyl-phenoxy}-acetic acid]  78%
14. CCCOc1nc(Oc2cc(C(F)(F)F)ccc2Cl)nc2oc(-c3cc(C)c(OCC(=O)O)c(C)c3)nc12 [Example 77, {4-[5-(2-chloro-5-trifluoromethylphenoxy)-7-propoxy-oxazolo[5,4-d]pyrimidin-2-yl]-2,6-dimethyl-phenoxy}-acetic acid]  77%
15. CCCOc1nc(Oc2ccccc2F)nc2oc(-c3cc(C)c(OCC(=O)O)c(C)c3)nc12 [Example 4, {4-[5-(2-fluoro-phenoxy)-7-propoxy-oxazolo[5,4-d]pyrimidin-2-yl]-2,6-dimethyl-phenoxy}-acetic acid]  76%
16. CCCOc1nc(Oc2cnc3ccccc3c2)nc2oc(-c3cc(C)c(OCC(=O)O)c(C)c3)nc12 [Example 58, {2,6-dimethyl-4-[7-propoxy-5-(quinolin-3-yloxy)-oxazolo[5,4-d]pyrimidin-2-yl]-phenoxy}-acetic acid]  75%
17. CCCOc1nc(Oc2ccc(Cl)c(C(F)(F)F)c2)nc2oc(-c3cc(C)c(OCC(=O)O)c(C)c3)nc12 [Example 78, {4-[5-(4-chloro-3-trifluoromethylphenoxy)-7-propoxy-oxazolo[5,4-d]pyrimidin-2-yl]-2,6-dimethylphenoxy}-acetic acid]  72%
18. CCCOc1nc(Oc2ccc(C)cc2)nc2oc(-c3cc(C)c(OCC(=O)O)c(C)c3)nc12 [Example 31, [2,6-dimethyl-4-(7-propoxy-5-(4-methylphenoxy)-oxazolo[5,4-d]pyrimidin-2-yl)-phenoxy]-acetic acid]  72%
19. CCCOc1nc(Oc2cccc(Cl)c2F)nc2oc(-c3cc(C)c(OCC(=O)O)c(C)c3)nc12 [Example 63, {4-[5-(3-chloro-2-fluorophenoxy)-7-propoxy-oxazolo[5,4-d]pyrimidin-2-yl]-2,6-dimethyl-phenoxy}-acetic acid]  67%
20. CCCOc1nc(O[C@@H]2CCCC[C@H]2F)nc2oc(-c3cc(C)c(OCC(=O)O)c(C)c3)nc12 (relative stereo) [Example 3, {4-[5-(trans-2-Fluoro-cyclohexyloxy)-7-propoxy-oxazolo[5,4-d]pyrimidin-2-yl]-2,6-dimethyl-phenoxy}-acetic acid]  65%
21. CCCOc1nc(Oc2ccc(Cl)c(F)c2)nc2oc(-c3cc(C)c(OCC(=O)O)c(C)c3)nc12 [Example 64, {4-[5-(4-chloro-3-fluorophenoxy)-7-propoxy-oxazolo[5,4-d]pyrimidin-2-yl]-2,6-dimethylphenoxy}-acetic acid]  65%
22. CCCOc1nc(Oc2cc(F)cc(Cl)c2)nc2oc(-c3cc(C)c(OCC(=O)O)c(C)c3)nc12 [Example 60, {4-[5-(3-chloro-5-fluorophenoxy)-7-propoxy-oxazolo[5,4-d]pyrimidin-2-yl]-2,6-dimethyl-phenoxy}-acetic acid]  59%
23. CCCOc1nc(Oc2ccc3c(c2)CCC3)nc2oc(-c3cc(C)c(OCC(=O)O)c(C)c3)nc12 [Example 53, {4-[5-(indan-5-yloxy)-7-propoxy-oxazolo[5,4-d]pyrimidin-2-yl]-2,6-dimethylphenoxy}-acetic acid]  55%
24. CCOc1nc(Oc2cccc(Cl)c2)nc2oc(-c3cc(C)c(OCC(=O)O)c(C)c3)nc12 [Example 38, {4-[5-(3-chlorophenoxy)-7-ethoxy-oxazolo[5,4-d]pyrimidin-2-yl]-2,6-dimethyl-phenoxy}-acetic acid]  55%
25. CCCOc1nc(Oc2ccc(C)cc2F)nc2oc(-c3cc(C)c(OCC(=O)O)c(C)c3)nc12 [Example 44, {4-[5-(2-fluoro-4-methylphenoxy)-7-propoxy-oxazolo[5,4-d]pyrimidin-2-yl]-2,6-dimethylphenoxy}-acetic acid]  43%
